In paper PMC4731787, “Structural basis for the recognition of two consecutive mutually interacting DPF motifs by the SGIP1 μ homology domain” (Scientific Reports, 2016):

B3: Eps15-618–654 (domain or fragment, human)
chain: GPLGSYDFFQSDPFVGSDPFKDDPFGKIDPFGGDPFKGSDPFA
notes: source: E. coli, expressed and purified in the same manner as the SGIP1 µHD
B4: FCHo1 µ homology domain (µHD), residues 623 to 889 (domain or fragment, human, UniProt O14526-1 623-889, looked up)
chain: QDALPIATAFTEYVHAYFRGHSPSCLARVTGELTMTFPAGIVRVFSGTPPPPVLSFRLVHTTAIEHFQPNADLLFSDPSQSDPETKDFWLNMAALTEALQRQAEQNPTASYYNVVLLRYQFSRPGPQSVPLQLSAHWQCGATLTQVSVEYGYRPGATAVPTPLTNVQILLPVGEPVTNVRLQPAATWNLEEKRLTWRLPDVSEAGGSGRLSASWEPLSGPSTPSPVAAQFTSEGTTLSGVDLELVGSGYRMSLVKRRFATGMYLVSC
notes: also called FCHo1 µHD; human FCHo1 µHD (aa623–889); source: E. coli, expressed and purified in the same manner as the SGIP1 µHD

Experiments:
SGIP1 µHD N670D = molecular target: T1, SGIP1 µHD N670D (Homo sapiens, UniProt Q9BQI5, N670D); assay: ITC of Eps15 fragments with the SGIP1 μHD N670D mutant; format: binding
T1 construct: the SGIP1 μHD (residues 552 to 828); GST (N, cleaved yes); made in house; host or cells: Escherichia coli (as for the wild-type μHD)
T1 sequence (Q9BQI5 552-828 N670D): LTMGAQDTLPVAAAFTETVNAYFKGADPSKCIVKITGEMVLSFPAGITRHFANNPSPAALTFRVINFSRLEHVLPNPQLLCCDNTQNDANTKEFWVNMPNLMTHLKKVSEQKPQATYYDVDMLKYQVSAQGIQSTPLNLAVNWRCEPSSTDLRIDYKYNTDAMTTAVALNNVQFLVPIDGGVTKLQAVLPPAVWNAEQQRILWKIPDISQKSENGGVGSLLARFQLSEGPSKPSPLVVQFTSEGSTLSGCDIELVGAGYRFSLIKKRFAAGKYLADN
Experimental: (§1) For the majority of the ITC experiments, the SGIP1 μHD, its mutants, or the FCHo1 μHD, in 50 mM Tris-HCl buffer (pH 8.0) containing 50 mM NaCl, was loaded in the sample cell, in a volume of 1.42 ml, and titrated with various Eps15-derived fragments or peptides in the same buffer, with an initial 5 μl injection and subsequent 10 μl injections, for a total of 25 injections. The titrations were performed while the samples were stirred at 310 r.p.m. at 25 °C. Each injection was followed by an interval of 4 min, to allow baseline stabilization. For the other ITC experiments indicated in Supplementary Table 2, the Eps15-derived fragments or peptides in the sample cell were titrated with the SGIP1 or FCHo1 μHD. All ITC experiments were performed on a VP-ITC microcalorimeter (MicroCal, LLC) and repeated twice, and the data were processed with the program NITPIC[42]. The two data sets from each ITC experiment were analyzed by global weighted least-squares fitting with the program SEDPHAT[43]. Figures for the ITC data were created with the program GUSSI (http://biophysics.swmed.edu/MBR/software.html). To obtain the values of the traditional stoichiometric parameter N in our ITC data analyses (Supplementary Table 2), we used the values of the parameters of the incompetent fractions of proteins and ligands. […]

[1] = molecular target: T2, SGIP1 μHD (residues 552 to 828) (Homo sapiens, UniProt Q9BQI5); assay: ITC of Eps15 fragments with the SGIP1 μHD; format: binding; details: for -TΔS / ΔG / ΔH / N (binding ratio of Eps15 fragment to μHD): μHD in cell titrated with fragment
T2 construct: the SGIP1 μHD (residues 552 to 828); GST (N, cleaved yes); made in house; host or cells: Escherichia coli BL21-Gold (DE3) or Rosetta2
T2 sequence (Q9BQI5 552-828): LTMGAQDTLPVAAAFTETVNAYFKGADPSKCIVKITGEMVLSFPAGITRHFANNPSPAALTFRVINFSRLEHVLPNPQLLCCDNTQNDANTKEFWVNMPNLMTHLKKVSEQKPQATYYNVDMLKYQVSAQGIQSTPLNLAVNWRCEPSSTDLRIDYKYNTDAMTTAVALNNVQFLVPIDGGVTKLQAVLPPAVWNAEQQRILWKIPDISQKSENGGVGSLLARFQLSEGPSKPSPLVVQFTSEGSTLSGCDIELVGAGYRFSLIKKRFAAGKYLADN
How it was run: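 Isothermal titration calorimetry was run at 25 °C in 50 mM Tris-HCl pH 8.0, 50 mM NaCl, mostly titrating Eps15 fragments or peptides into μHD protein in the cell (25 injections, 4 min apart). Some runs reversed the titration direction. Duplicate runs were globally fitted to single- or two-site models, with N derived from incompetent-fraction parameters.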

[2] = molecular target: T3, FCHo1 µHD (residues 623 to 889) (Homo sapiens, UniProt O14526); assay: ITC of Eps15 fragments with the FCHo1 μHD; format: binding; details: FCHo1 μHD in cell titrated with fragment, single-site model
T3 construct: GST (N, cleaved yes); made in house; host or cells: Escherichia coli (as for the SGIP1 μHD)
T3 sequence (O14526 623-889): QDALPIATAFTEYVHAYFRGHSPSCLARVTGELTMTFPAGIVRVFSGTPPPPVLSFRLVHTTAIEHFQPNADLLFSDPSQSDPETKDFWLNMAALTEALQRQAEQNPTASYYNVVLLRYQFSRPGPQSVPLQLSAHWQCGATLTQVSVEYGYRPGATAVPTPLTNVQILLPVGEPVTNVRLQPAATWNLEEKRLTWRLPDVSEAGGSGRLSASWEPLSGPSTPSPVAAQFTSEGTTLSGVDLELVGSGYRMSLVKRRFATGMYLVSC
Experimental: For the majority of the ITC experiments, the SGIP1 μHD, its mutants, or the FCHo1 μHD, in 50 mM Tris-HCl buffer (pH 8.0) containing 50 mM NaCl, was loaded in the sample cell, in a volume of 1.42 ml, and titrated with various Eps15-derived fragments or peptides in the same buffer, with an initial 5 μl injection and subsequent 10 μl injections, for a total of 25 injections. The titrations were performed while the samples were stirred at 310 r.p.m. at 25 °C. Each injection was followed by an interval of 4 min, to allow baseline stabilization. For the other ITC experiments indicated in Supplementary Table 2, the Eps15-derived fragments or peptides in the sample cell were titrated with the SGIP1 or FCHo1 μHD. All ITC experiments were performed on a VP-ITC microcalorimeter (MicroCal, LLC) and repeated twice, and the data were processed with the program NITPIC[42]. The two data sets from each ITC experiment were analyzed by global weighted least-squares fitting with the program SEDPHAT[43]. Figures for the ITC data were created with the program GUSSI (http://biophysics.swmed.edu/MBR/software.html). To obtain the values of the traditional stoichiometric parameter N in our ITC data analyses (Supplementary Table 2), we used the values of the parameters of the incompetent fractions of proteins and ligands. […] The values of the incompetent fractions are between 0 and 1, whereas the other parameter affecting the traditional parameter N, the number of sites, was fixed as 1 and 2, for the single- and two-site models, respectively. Thus, in the two-site model, the values of N for the first and second sites are identical in our ITC data analyses (Supplementary Table 2).

SGIP1 µHD K816E = molecular target: T4, SGIP1 µHD K816E (Homo sapiens, UniProt Q9BQI5, K816E); assay: ITC of Eps15 fragments with the SGIP1 μHD K816E mutant; format: binding
T4 construct: the SGIP1 μHD (residues 552 to 828); GST (N, cleaved yes); made in house; host or cells: Escherichia coli (as for the wild-type μHD)
T4 sequence (Q9BQI5 552-828 K816E): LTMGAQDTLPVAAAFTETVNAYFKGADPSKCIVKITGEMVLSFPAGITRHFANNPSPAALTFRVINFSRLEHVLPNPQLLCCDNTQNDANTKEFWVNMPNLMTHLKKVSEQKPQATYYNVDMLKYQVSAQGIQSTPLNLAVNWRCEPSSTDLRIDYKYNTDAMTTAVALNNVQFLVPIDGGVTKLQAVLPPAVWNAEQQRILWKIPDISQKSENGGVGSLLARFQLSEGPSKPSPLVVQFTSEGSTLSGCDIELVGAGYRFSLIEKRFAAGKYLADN
Experimental: as §1

[3] = molecular target: T5, appendage domain of human α-adaptin (residues 711 to 955) (human, UniProt O95782-2 711-955); assay: ITC; VP-ITC; α-adaptin appendage domain with Eps15 fragments; which of the two was in the cell is not told in the text (Supplementary Table 2); details: both partners purified
T5 construct: also called α-adaptin appendage domain; source: E. coli, purified in the same manner as for the SGIP1 μHD
T5 sequence (looked up): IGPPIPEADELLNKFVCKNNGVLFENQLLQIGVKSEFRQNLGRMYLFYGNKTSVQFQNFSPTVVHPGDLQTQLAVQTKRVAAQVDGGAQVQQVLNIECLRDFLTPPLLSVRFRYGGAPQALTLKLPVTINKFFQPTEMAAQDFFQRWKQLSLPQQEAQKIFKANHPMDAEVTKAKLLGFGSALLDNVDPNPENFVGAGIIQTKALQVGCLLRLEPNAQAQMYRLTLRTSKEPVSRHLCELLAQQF

[4] = molecular target: α-adaptin appendage domain (residues 711 to 955); assay: ITC of Eps15 fragments with the α-adaptin appendage domain; format: binding, human
[5] = molecular target: B4; assay: ITC; Eps15 fragment in the sample cell, titrated with the SGIP1 or FCHo1 µHD; 50 mM Tris-HCl (pH 8.0), 50 mM NaCl, 25 °C; VP-ITC; two data sets fitted globally (NITPIC, SEDPHAT); single-site or two-site model as named in the quantity; details: both partners purified
[6] = molecular target: B4; assay: ITC; µHD, µHD mutant or α-adaptin appendage domain in the sample cell, titrated with the Eps15 fragment or peptide; 50 mM Tris-HCl (pH 8.0), 50 mM NaCl, 25 °C; VP-ITC; two data sets fitted globally (NITPIC, SEDPHAT); single-site model; details: both partners purified
Eps15-618–654 = molecular target: B3; assay: ITC; Eps15 fragment in the sample cell, titrated with the SGIP1 or FCHo1 µHD; 50 mM Tris-HCl (pH 8.0), 50 mM NaCl, 25 °C; VP-ITC; two data sets fitted globally (NITPIC, SEDPHAT); single-site or two-site model as named in the quantity; details: both partners purified
[7] = 25 °C, 50 mM Tris-HCl pH 8.0, 50 mM NaCl, mutant μHD in cell titrated with fragment, two runs
[8] = 25 °C, single-site model, ± 68.3% confidence interval
[9] = single-site model, ± 68.3% confidence interval

Ac-YDPFGGDPFKG-NH2 [Eps15-640–649]
binding to SGIP1 μHD with Asn670 replaced by Asp (in words) (SGIP1 µHD N670D): abolished the binding | Kd (SGIP1 µHD N670D; [7]): below detection limit | -TΔS ([1]; 25 °C, single-site model): 2.106 kcal/mol | ΔG ([1]; 25 °C, single-site model): -6.166 kcal/mol | ΔH [1, 8]: -8.272 ± 0.679 kcal/mol | N (binding ratio of Eps15 fragment to μHD) [1, 9]: 0.66 ± 0.03

Ac-YDPFGGDPFKGSDPFA-NH2 [Eps15-640–654]
Kd ([2]; 25 °C, 50 mM Tris-HCl pH 8.0, 50 mM NaCl, global fit of two runs, ± 68.3% confidence interval): 5500 ± 1400 nM | -TΔS ([2]; 25 °C): 0.748 kcal/mol | ΔG ([2]; 25 °C): -7.175 kcal/mol | ΔH ([2]; 25 °C, ± 68.3% confidence interval): -7.923 ± 1.098 kcal/mol | N (binding ratio of Eps15 fragment to FCHo1 μHD) ([2]; ± 68.3% confidence interval): 0.64 ± 0.06 | binding to SGIP1 μHD with Lys816 replaced by Glu (in words) (SGIP1 µHD K816E): abolished the binding | Kd (SGIP1 µHD K816E; [7]): below detection limit | binding to the SGIP1 μHD (in words) [1]: slightly stronger affinity than Eps15-622–637 | -TΔS ([1]; 25 °C, single-site model): 3.482 kcal/mol | ΔG ([1]; 25 °C, single-site model): -7.559 kcal/mol | ΔH [1, 8]: -11.041 ± 0.191 kcal/mol | N (binding ratio of Eps15 fragment to μHD) [1, 9]: 0.66 ± 0.01

B1: Eps15-661–720 (domain or fragment, human, UniProt P42566-1 661-720, looked up)
chain: QSTDPFATSSTDPFSAANNSSITSVETLKHNDPFAPGGTVVAASDSATDPFASVFGNESF
notes: Eps15, human, residues 661-720; source: E. coli, purified in the same manner as for the SGIP1 μHD
binding result [3]: binds

B2: Eps15-661–790 (domain or fragment, human, UniProt P42566-1 661-790, looked up)
chain: QSTDPFATSSTDPFSAANNSSITSVETLKHNDPFAPGGTVVAASDSATDPFASVFGNESFGGGFADFSTLSKVNNEDPFRSATSSSVSNVVITKNVFEETSVKSEDEPPALPPKIGTPTRPCPLPPGKRS
notes: Eps15, human, residues 661-790 (limits from the fragment's name); source: E. coli, purified in the same manner as for the SGIP1 μHD
Kd for the α-adaptin appendage domain (in words) [4]: in the nanomolar range | Kd ([4]; 25 °C, appendage domain titrated with Eps15 fragment, single-site model, global fit of two runs, ± 68.3% confidence interval): 690 ± 80 nM | -TΔS ([4]; 25 °C, single-site model): 20.041 kcal/mol | ΔG ([4]; 25 °C, single-site model): -8.401 kcal/mol | ΔH [4, 8]: -28.442 ± 0.319 kcal/mol | binding result [3]: binds | binding to the SGIP1 μHD (in words) [1]: could not detect the clear binding | Kd ([1]; 25 °C, 50 mM Tris-HCl pH 8.0, 50 mM NaCl, μHD in sample cell titrated with Eps15 fragment, single-site model, global fit of two runs, ± 68.3% confidence interval): below detection limit

B3
Kd [5]: 190 nM | Kd [6]: 270 nM | stoichiometry N [6]: 0.59

B4
stoichiometry N (Eps15-618–654): 0.7
